In patent US10967047B2, “Mitochondrial antiviral-signaling (MAVS) polypeptides and detection and use thereof” (University of Vermont and State Agricultural College, priority 2016, dated 2021):

Key:
[1] = tested on: MEFs; test: Mitochondrial transmembrane potential (ΔΨm) by FACS using TMRE in MEFs; type: cell-based, mouse
Procedure: ROS generation was measured using oxidized, green-fluorescent dihydrocalcein acetoxymethylester (DHC-AM) (Life Technologies) and flow cytometry. Single-cell suspensions of MEFs were prepared and ROS was assessed with 5 μM DHC-AM staining in culture medium for 30 minutes (A. Rohnstock et al., (2007) Toxicol in Vitro 21, 1552-1562). 25 nM of cationic cell permeant dye tetramethylrhodamine ethylester (TMRE; Life Technologies) (R. C. Scaduto, Jr. et al., (1999), Biophysical journal 76, 469-477) were used to measure ΔΨm. Additionally, MitoSox Red and MitoTracker Deep Red (Life Technologies) were used to measure mitochondrial ROS and mitochondrial mass, respectively. Flow cytometry was carried out on an LSRII (BD Biosciences), and FlowJo software (Tree Star) was used for analysis.

[2] = tested on: MEFs; test: IFN-I and IL-6 cytokine secretion by ELISA in MEF culture supernatants; type: cell-based, mouse
Procedure: ELISA was used to measure cytokine concentration in supernatant from cultured MEFs and BMDCs, and in sera of SLE patients and healthy control subjects. For assays, samples were centrifuged and IFN-β and IL-6 levels were measured in triplicate using murine or human ELISA kits according to the manufacturer's instructions. (PBL Biosciences). The fold change in IFN-I or IL-6 cells was calculated by directly comparing mock versus virus or chemical inducer of ROS.

[3] = tested on: MAVS; test: MAVS oligomerization in human PBMC and plasma (semi-denaturing agarose gel electrophoresis); type: cell-based
Procedure: MAVS-deficient and matching WT MEFs, gift of Z. J. Chen (Z. J. Chen et al. (2005) Cell 122, 669-682), were maintained in Dulbecco's modified Eagle's medium (DMEM) (Hyclone), supplemented with 10% heat-inactivated fetal calf serum (FCS) (Hyclone), 100 mM L-glutamine (Cellgro Mediatech), and 10,000 units/mL penicillin/10 mg/mL streptomycin sulfate (Life Technologies). C57BL6 or B6; 129-Mavstm1Zjc/J mice (The Jackson Laboratory, Bar Harbor, Me.) were maintained at the University of Vermont under a protocol approved by the Institutional Animal Care and Use Committee. Murine BMDCs were prepared as described by Inaba et al. (K. Inaba et al., (1992) Journal of Experimental Medicine 176, 1693-1702). In brief, cells derived from femur bone marrow were cultured at a density of 5×10^5/mL in 10-cm plates in RPMI 1640 (HyClone), supplemented with 5% heat-inactivated FCS, 100 mmol L-glutamine, 100 mmol sodium pyruvate, 10,000 units/mL penicillin/10 mg/mL streptomycin sulfate, 5×10^−5 mol 2-mercaptoethanol (Sigma, St. Louis, Mo.), and 10 μg/mL GM-CSF (Life Technologies). Human subjects were enrolled under a protocol approved by the University of Vermont Institutional Review Board. Samples from 17 SLE patients fulfilling the American College of Rheumatology diagnostic criteria were studied (E. M. Tan et al., (1982) Arthritis and Rheumatism 25, 1271-1277). 16 out of 17 patients were female, and the age of study participants was 47±3. The disease activity was assessed by the SLE disease activity index (SLEDAI) scores, ranging from 0 to 10 (C. Bombardier et al., (1992) Arthritis and Rheumatism 35, 630-640). Upon informed consent, primary human PBMCs were obtained from heparinized whole-blood samples from SLE patients. Control PBMCs were generated from age-, sex-, and ethnicity-matched healthy subjects. PBMCs were isolated using standard Ficoll gradient centrifugation as previously described (R. Mallone et al., (2011) Clin. and Exp. Immunol. 163, 33-49). Cells were either used immediately to prepare lysates for immunoblotting or cultured at a density of 5×10^5/mL in a 12-well culture plate with RPMI 1640 (HyClone), supplemented with 5% heat-inactivated FCS, 100 mmol L-glutamine, 100 mmol sodium pyruvate, and 10,000 units/mL penicillin/10 mg/mL streptomycin sulfate. Enriched monocytes from PBMCs were used to prepare hDCs using negative magnetic bead selection (Miltenyi), and were subsequently cultivated for 6 d in 10 μg/mL GM-CSF and 500 U/mL IL-4. All cells were maintained in a humidified chamber at 37° C. and 5% CO2.
SDD-AGE was performed according to a published protocol with minor modifications (Alberti et al., (2009) Cell 137, 146-158). In brief, mitochondria were resuspended in sample buffer (0.5×TBE, 10% glycerol, 2% SDS, and 0.0025% bromophenol blue) and loaded onto a vertical 1.5% agarose gel. After electrophoresis in the running buffer (1×TBE and 0.1% SDS) for 35 min with a constant voltage of 75 V at 4° C., proteins were transferred to PVDF membranes using a Trans-Blot Turbo Transfer System (BioRad) for immunoblotting.
PVDF membranes were blocked in 5% solution of nonfat powdered milk in Tris-buffered saline. Antibodies used were specific for MAVS and Actin (Santa Cruz); RIPK1 and TRAF2 (BD Biosciences); TANK, TRADD, RIG-I, and GAPDH (Cell Signaling); MDAS and COX4 (Abcam), Alexa 488 (Life Technologies), and IRF3 (Thermo Fisher), respectively. […] Chemiluminescence was detected and recorded using a Biorad Chemidoc instrument. […]

[4] = tested on: MAVS; test: MAVS oligomerization in purified MEF mitochondria, with or without SLE patient-derived MAVS oligomers; set-up: species or system mouse
Procedure: MAVS antibody was covalently coupled to protein G magnetic beads (Life Technologies) using the bi-functional amine-reactive cross-linker disuccinimidyl suberate (DSS; Thermo Scientific). To avoid a sample contamination with proteins or protein complexes that nonspecifically bind to protein G, plasma samples were pre-incubated with protein G magnetic beads without the cross-linked MAVS antibody. SLE patient plasma were incubated for 6 hours, after which the magnetic beads were loaded onto a column in a magnetic field and extensively washed. After the beads were eluted, MAVS-oligomers were released from MAVS-antibody by way of increasing ionic strength buffer, lower pH and gel filtration. Functionally intact mitochondria from cultured cells were isolated as described earlier (S. Schmitt et al., (2013) Analytical biochemistry 443, 66-74). This method comprises a mechanical cell rupture, followed by a precipitation of mitochondria from cell lysates using magnetically labeled anti-TOM22 (Miltenyi Biotec) antibody. […] The reaction mixtures were centrifuged at 10,000×g for 10 min, and the precipitates then analyzed using SDD-AGE.

Compound | mitochondrial hyperpolarization (ΔΨm) with MitoQ ([1]; MEF, GOx+/−MitoQ and SINV+/−MitoQ, TMRE (FIG. 3C)) | IFN-I secretion with MitoQ ([2]; MEF with or without MitoQ, GOx or SINV (FIG. 3D)) | GOx-induced MAVS oligomerization in PBMCs after pretreatment ([3]; healthy-donor PBMCs pretreated with MitoQ or grown in presence of β-Me, then GOx (FIG. 4A)) | MAVS oligomerization induced by SLE plasma MAVS oligomers in isolated mitochondria ([4]; mitochondria pretreated with MitoQ (FIG. 6C, lane 4)) | ΔΨm induced by the substance ([1]; MAVS-WT MEFs, not observed in MAVS-KO (FIG. 1B, 2D)) | IFN-I secretion induced by the substance ([2]; MAVS-WT MEFs, not observed in MAVS-KO (FIG. 2E, 2J)) | IL-6 secretion induced by the substance ([2]; MAVS-WT MEFs, not observed in MAVS-KO (FIG. 2F, 2K)) | induction of MAVS oligomerization in PBMCs ([3]; healthy-donor PBMCs treated with GOx (FIG. 4A)) | induction of MAVS oligomerization in purified mitochondria ([4]; GOx treatment, positive control (FIG. 6C, lane 2))
COC1=C(OC)C(=O)C(CCCCCCCCCC[P+](c2ccccc2)(c2ccccc2)c2ccccc2)=C(C)C1=O.CS(=O)(=O)[O-] [MitoQ, [10-(4,5-Dimethoxy-2-methyl-3,6-dioxo-1,4-cyclohexadien-1-yl)decyl](triphenyl)phosphonium methanesulfonate] | decreased mitochondrial hyperpolarization | reduced IFN-I secretion | MAVS oligomerization did not occur | significantly decreased | – | – | – | – | –
glucose oxidase [GOx] | – | – | – | – | increased ΔΨm | increased secretion | increased secretion | induced pronounced MAVS oligomerization | induced MAVS oligomerization
